Experiments:
HepG2 = assay: Antiproliferative activity against human HepG2 cells assessed as inhibition of cell growth incubated for 72 hrs by MTT assay; type: functional, cell-based; conditions: HepG2, 72 h
HeLa [1] = assay: Antitumor activity against human HeLa cells xenografted in wildtype zebrafish AB yolk sac assessed as tumor fluorescence area at 15 uM measured immediately by fluorescence based assay; type: functional
[2] = Selectivity index, ratio of IC50 for cytotoxicity against HEK293T cells to IC50 for antiproliferative activity against human HeLa cells; type: toxicity, cell-based; conditions: HEK293T cells versus HeLa cells, read-out: Ratio IC50
SK-OV-3 = assay: Antiproliferative activity against human SK-OV-3 cells assessed as inhibition of cell growth incubated for 72 hrs by MTT assay; type: functional, cell-based; conditions: SK-OV-3, 72 h
T47D = assay: Antiproliferative activity against human T47D cells assessed as inhibition of cell growth incubated for 72 hrs by MTT assay; type: functional, cell-based
[3] = Cytotoxicity against HEK293T cells assessed as inhibition of cell growth incubated for 72 hrs by MTT assay; type: toxicity, cell-based, HEK-293T; conditions: human
HeLa [4] = assay: Antitumor activity against human HeLa cells xenografted in wildtype zebrafish AB yolk sac assessed as tumor fluorescence intensity at 15 uM measured immediately by fluorescence based assay; type: functional
HeLa [5] = assay: Antitumor activity against human HeLa cells xenografted in wildtype zebrafish AB yolk sac assessed as tumor fluorescence intensity at 15 uM measured 48 hrs post injection by fluorescence based assay; type: functional
MCF7 = assay: Antiproliferative activity against human MCF7 cells assessed as inhibition of cell growth incubated for 72 hrs by MTT assay; type: functional, cell-based; conditions: MCF7, 72 h
HeLa [6] = assay: Antitumor activity against human HeLa cells xenografted in wildtype zebrafish AB yolk sac assessed as tumor fluorescence area at 15 uM measured 48 hrs post injection by fluorescence based assay; type: functional
HeLa [7] = assay: Antiproliferative activity against human HeLa cells assessed as inhibition of cell growth incubated for 72 hrs by MTT assay; type: functional, cell-based

C[C@]12CC[C@@H]3c4ccc(OCCCCC[Se]C#N)cc4CC[C@H]3[C@@H]1CCC2=O
IC50 (HepG2): > 100 µM
Activity (HeLa [1]): 79354.17 pixel
selectivity ratio [2]: 8.1
IC50 (SK-OV-3): 31 µM
IC50 (T47D): 68.2 µM
IC50 at 72 h [3]: 77.2 µM
Flu intensity (HeLa [4]): 43169.53
Flu intensity (HeLa [5]): 5328.6
IC50 (MCF7): 38.3 µM
Activity (HeLa [6]): 12391.83 pixel
IC50 (HeLa [7]): 9.5 µM

Source: ChEMBL document CHEMBL5150066, “Synthesis of estrone selenocyanate Compounds, anti-tumor activity evaluation and Structure-activity relationship analysis” (Bioorg Med Chem, 2022)
